Measured values from US5378846A, “1,2,3,4-tetrahydropyrrolo-[1,2-a]-pyrazine derivatives” (Russian-American Institute For New Drug Development, priority 1993, dated 1995).
Entries after “also recorded” stand apart in the source; their conditions may differ.

Experiments:
BALB/c mice = test: Open field test, BALB/c mice; type: in vivo, male BALB/c mice; settings: for Central activity / Crosses of Squires / Emotionality (N. of defec.) / Total locomotor activity / Vert. stands: BALB/c, i.p.
Experimental: The effects of Compound 1 on different emotional stress reactions (ESR) in male mice of C57 B1/6 and BALB/c strains were studied. ESR indices were evaluated as changes in mice ambulations, defecations and motor activity in an "open field" test (Seredenin S. B., Vedernikov, A. A., Bull. Exp. Biol. Med., 100, No. 7, 38-40 (1979), which is incorporated herein by reference). Compound 1 was injected in different doses intraperitoneally 45 min. before test.

C57 B1/6 mice = test: Open field test, C57 B1/6 mice; type: in vivo, male C57 B1/6 mice; settings: for Central activity / Crosses of Squires / Emotionality (N. of defec.) / Total locomotor activity / Vert. stands: C57 B1/6, i.p.
Experimental: ESR indices were evaluated as changes in mice ambulations, defecations and motor activity in an "open field" test ([…]., Bull. Exp. Biol. […] Compound 1 was injected in different doses intraperitoneally 45 min. before test.

O=C(O)CCC(=O)O.c1cc2n(c1)CCNC2 [Compound 1, 1,2,3,4-tetrahydropyrrolo-[1,2-a]-pyrazine hydrosuccinate]
Open field behavior of BALB/c mice, in words (BALB/c mice; 2.5 and 5.0 mg/kg i.p.): produces activating (anxiolytic) effect in initially low active BALB/c mice; also recorded: caused ambulation increase elevating the central activity, and defecation decrease in BALB/c mice | Central activity (BALB/c mice; 0.1 mg/kg): 0.0 | Crosses of Squires (BALB/c mice; 0.1 mg/kg): 21.2 ± 5.8 | Emotionality (N. of defec.) (BALB/c mice; 0.1 mg/kg): 0.5 ± 0.17 | Total locomotor activity (BALB/c mice; 0.1 mg/kg): 21.2 ± 5.8 | Vert. stands (BALB/c mice; 0.1 mg/kg): 0.0 | Central activity (BALB/c mice; 1.0 mg/kg): 0.4 ± 0.3 | Crosses of Squires (BALB/c mice; 1.0 mg/kg): 25.6 ± 4.6 | Emotionality (N. of defec.) (BALB/c mice; 1.0 mg/kg): 1.2 ± 0.13 | Total locomotor activity (BALB/c mice; 1.0 mg/kg): 26.1 ± 4.6 | Vert. stands (BALB/c mice; 1.0 mg/kg): 0.1 ± 0.1 | Central activity (BALB/c mice; 5.0 mg/kg): 2.4 ± 0.9 | Crosses of Squires (BALB/c mice; 5.0 mg/kg): 29.8 ± 5.2 | Emotionality (N. of defec.) (BALB/c mice; 5.0 mg/kg): 0.45 ± 0.11 | Total locomotor activity (BALB/c mice; 5.0 mg/kg): 33.0 ± 6.1 | Vert. stands (BALB/c mice; 5.0 mg/kg): 0.9 ± 0.5 | Open field behavior of C57 B1/6 mice, in words (C57 B1/6 mice; 5 mg/kg i.p.): caused the reduction of total ambulations inhibiting central and vertical activity. The number of defecations was not changed | Central activity (C57 B1/6 mice; 0.1 mg/kg): 24.2 ± 5.2 | Crosses of Squires (C57 B1/6 mice; 0.1 mg/kg): 74.6 ± 7.6 | Emotionality (N. of defec.) (C57 B1/6 mice; 0.1 mg/kg): 1.0 ± 0.53 | Total locomotor activity (C57 B1/6 mice; 0.1 mg/kg): 114.6 ± 12.1 | Vert. stands (C57 B1/6 mice; 0.1 mg/kg): 15.8 ± 2.5 | Central activity (C57 B1/6 mice; 1.0 mg/kg): 29.9 ± 5.2 | Crosses of Squires (C57 B1/6 mice; 1.0 mg/kg): 65.6 ± 5.5 | Emotionality (N. of defec.) (C57 B1/6 mice; 1.0 mg/kg): 0.8 ± 0.39 | Total locomotor activity (C57 B1/6 mice; 1.0 mg/kg): 110.6 ± 10.9 | Vert. stands (C57 B1/6 mice; 1.0 mg/kg): 15.1 ± 2.0 | Central activity (C57 B1/6 mice; 5.0 mg/kg): 11.1 ± 1.6 | Crosses of Squires (C57 B1/6 mice; 5.0 mg/kg): 51.7 ± 5.3 | Emotionality (N. of defec.) (C57 B1/6 mice; 5.0 mg/kg): 0.22 ± 0.22 | Total locomotor activity (C57 B1/6 mice; 5.0 mg/kg): 71.7 ± 6.9 | Vert. stands (C57 B1/6 mice; 5.0 mg/kg): 7.8 ± 1.5 | Sedation in C57B1/6 mice, in words (C57 B1/6 mice; anxiolytic dose range, open field test): does not cause sedation in C57B1/6 mice; also recorded: anxiolytic effect in BALB/c mice does not coincide with sedative effect in C57B 1/6 mice
